In general, solubility refers to the dissolved amount per volume that the medium holds.

One data set can be described thus: physchem. The class given is physicochemical. The source says:
Atomoxetine HCl (API, active pharmaceutical ingredient) has good aqueous solubility. […] Human saliva has a pH normal range of 6.2-7.6 with 6.7 being the average pH. […] In the oral cavity, the pH is maintained near neutrality (6.7-7.3) by the saliva.
It is also evident that the solubilized form of atomoxetine is going to have a direct impact on taste buds thereby causing immediate bitterness upon drinking the oral solution.

For data set [1] the following is noted: cited from earlier work.

Take `CNCC[C@@H](Oc1ccccc1C)c1ccccc1.Cl` [Atomoxetine HCl, (-)-N-Methyl-3-phenyl-3-(o-tolyloxy)-propylamine hydrochloride]: the solubility in the data set “physchem” (aqueous buffer, Absolute Solubility) is 12.2 mg/mL; in “physchem” (pH 4.5, aqueous buffer, Absolute Solubility), 33.9 mg/mL; in the data set “physchem” (pH 6.8, aqueous buffer, Absolute Solubility), 3.53 mg/mL; in “physchem” (pH 6.8, aqueous buffer, solubility), 2.7 to 3.5 mg/mL; in the data set “physchem” (pH 7.4, aqueous buffer, Absolute Solubility), 2.75 mg/mL; in the data set “physchem” (simulated gastric fluid, Absolute Solubility), 13.1 mg/mL. This compound displayed a solubility in the data set “physchem” (water, Absolute Solubility) of 24.1 mg/mL.

Turning to “D-α-Tocopherol Polyethylene Glycol Succinate [Vitamin E TPGS]”, the “size of self-assembled nanosized aggregates” value in data set [1] (in water above CMC) is on record as “about 13 nm”. The “critical micellar concentration (CMC)” value in data set [1] (in water) is recorded as 0.02 wt %.

Values taken from patent US20250345436A1 (Hyloris Developments SA, priority 2023, published 2025).
